Test results from patent US20160046597A1, “RORC2 INHIBITORS AND METHODS OF USE THEREOF” (PFIZER INC., priority 2013, published 2016).

biological target: T1, RORC2 ligand binding domain (6-His-RORC2 LBD) (Homo sapiens, UniProt P51449); assay: Co-activator recruitment by TR-FRET (RORC2 FRET); type: biochemical; settings: 6.3 nM RORC2 LBD, 200 nM SRC1-2 coactivator peptide, 3 hours room temperature
T1 construct: made in house; host or cells: E. coli
T1 sequence (P51449 269-508 limits assumed): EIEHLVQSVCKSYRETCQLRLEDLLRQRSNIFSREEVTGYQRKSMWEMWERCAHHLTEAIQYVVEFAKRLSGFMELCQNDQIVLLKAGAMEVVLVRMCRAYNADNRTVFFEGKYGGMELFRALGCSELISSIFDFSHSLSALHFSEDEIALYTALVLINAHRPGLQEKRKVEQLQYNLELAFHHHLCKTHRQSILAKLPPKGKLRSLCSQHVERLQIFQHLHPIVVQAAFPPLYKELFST
Description: The activity of compound of the invention can be determined by a co-activator recruitment by TR-FRET (time-resolved fluorescence resonance energy transfer) assay. […] Due to the long lasting fluorescence emission of Europium, the non-specific, short-lived fluorescence is time-resolved (TR) from the fluorescence of interest. Inhibitors of the interaction of receptor and coactivator peptide are detected by a decrease in TR-FRET signal.
Specifically, in one embodiment the aforementioned assay was performed as outlined below. The assay was carried out in black polystyrene, 384-well plates in a total assay volume of 50.5 μL. The assay buffer contained 50 mM TRIS-HCL pH 7.5, 1 mM NaCl, 2 mM MgCl2, 0.5 mg/mL bovine serum albumin, and 5 mM dithiothreitol.

| Compound | IC50 |
| --- | --- |
| Cn1cc(C2CCN(C(=O)[C@H]3CCC[C@H]3O)CC2)c2cc(NC(=O)c3cc(C#N)ccn3)ccc21 (relative stereo) [Example 13, 4-cyano-N-[3-(1-{[(1S*,2R*)-2-hydroxycyclopentyl]carbonyl}piperidin-4-yl)-1-methyl-1 2-carboxamide] | 19.8 nM |
| CC(C)CC(=O)N1CCC(c2cn(C)c3ccc(NC(=O)c4cccc(C#N)c4)cc23)CC1 [Example 2, 3-cyano-N-(1-methyl-3-(1-(3-methylbutanoyl)piperidin-4-yl)-1H-indol-5-yl)benzamide] | 17.9 nM |
| CC[C@H](C)[C@H](O)C(=O)N1CCC(c2cn(C)c3ccc(NC(=O)c4cccc(C#N)c4)cc23)CC1 [Example 3, 3-cyano-N-(3-(1-((2S,3S)-2-hydroxy-3-methylpentanoyl)piperidin-4-yl)-1-methyl-1H-indol-5-yl)benzamide] | 387 nM |
| CC(C)C[C@H](O)C(=O)N1CCC(c2cn(C)c3ccc(NC(=O)c4cccc(C#N)c4)cc23)CC1 [Example 4, 3-cyano-N-(3-(1-((2S)-2-hydroxy-4-methylpentanoyl)piperidin-4-yl)-1-methyl-1H-indol-5-yl)benzamide] | 590 nM |
| Cn1cc(C2CCN(C(=O)[C@H]3CC[C@@H](O)CC3)CC2)c2cc(NC(=O)c3cccc(C#N)c3)ccc21 [Example 5, 3-cyano-N-(3-{1-[(cis-4-hydroxycyclohexyl)carbonyl]piperidin-4-yl}-1-methyl-1H-indol-5-yl)benzamide] | 106 nM |
| Cn1cc(C2CCN(C(=O)C3CCC(F)(F)C3)CC2)c2cc(NC(=O)c3cc(C#N)ccn3)ccc21 (stereo not shown) [Example 8, 4-cyano-N-(3-{1-[(3,3-difluorocyclopentyl)carbonyl]piperidin-4-yl}-1-methyl-1H-indol-5-yl)pyridine-2-carboxamide] | 7.3 nM |
| Cn1cc(C2CCN(C(=O)C3CC(F)(F)C3)CC2)c2cc(NC(=O)c3cc(C#N)ccn3)ccc21 [Example 9, 4-cyano-N-(3-{1-[(3,3-difluorocyclobutyl)carbonyl]piperidin-4-yl}-1-methyl-1H-indol-5-yl)pyridine-2-carboxamide] | 8.7 nM |
| Cc1cc(C(=O)N2CCC(c3cn(C)c4ccc(NC(=O)c5cc(C#N)ccn5)cc34)CC2)no1 [Example 10, 4-cyano-N-(1-methyl-3-{1-[(5-methylisoxazol-3-yl)carbonyl]piperidin-4-yl}-1H-indol-5-yl)pyridine-2-carboxamide] | 42.9 nM |
| Cn1nccc1C(=O)N1CCC(c2cn(C)c3ccc(NC(=O)c4cc(C#N)ccn4)cc23)CC1 [Example 11, 4-cyano-N-(1-methyl-3-{1-[(1-methyl-1H-pyrazol-5-yl)carbonyl]piperidin-4-yl}-1H-indol-5-yl)pyridine-2-carboxamide] | 34.6 nM |
| Cn1cc(C2CCN(C(=O)CC3CCOCC3)CC2)c2cc(NC(=O)c3cc(C#N)ccn3)ccc21 [Example 12, 4-cyano-N-{1-methyl-3-[1-(tetrahydro-2H-pyran-4-ylacetyl)piperidin-4-yl]-1H-indol-5-yl}pyridine-2-carboxamide] | 24.3 nM |
| Cn1cc(C2CCN(C(=O)C3CCCOC3)CC2)c2cc(NC(=O)c3cc(C#N)ccn3)ccc21 (stereo not shown) [Example 15, 4-cyano-N-{1-methyl-3-[1-(tetrahydro-2H-pyran-3-ylcarbonyl)piperidin-4-yl]-1H-indol-5-yl}pyridine-2-carboxamide] | 15.9 nM |
| CNc1ncccc1C(=O)N1CCC(c2cn(C)c3ccc(NC(=O)c4cc(C#N)ccn4)cc23)CC1 [Example 16, 4-cyano-N-[1-methyl-3-(1-{[2-(methylamino)pyridin-3-yl]carbonyl}piperidin-4-yl)-1H-indol-5-yl]pyridine-2-carboxamide] | 132 nM |
| Cn1cc(C2CCN(C(=O)c3cscn3)CC2)c2cc(NC(=O)c3cc(C#N)ccn3)ccc21 [Example 18, 4-cyano-N-{1-methyl-3-[1-(1,3-thiazol-4-ylcarbonyl)piperidin-4-yl]-1H-indol-5-yl}pyridine-2-carboxamide] | 26.1 nM |
| Cn1cc(C2CCN(C(=O)C3CCOCC3)CC2)c2cc(NC(=O)c3cc(C#N)ccn3)ccc21 [Example 19, 4-cyano-N-{1-methyl-3-[1-(tetrahydro-2H-pyran-4-ylcarbonyl)piperidin-4-yl]-1H-indol-5-yl}pyridine-2-carboxamide] | 40.6 nM |
| Cn1cc(C2CCN(C(=O)c3ccncn3)CC2)c2cc(NC(=O)c3cc(C#N)ccn3)ccc21 [Example 20, 4-cyano-N-{1-methyl-3-[1-(pyrimidin-4-ylcarbonyl)piperidin-4-yl]-1H-indol-5-yl}pyridine-2-carboxamide] | 246 nM |
| Cn1cc(C2CCN(C(=O)c3cccc(O)n3)CC2)c2cc(NC(=O)c3cc(C#N)ccn3)ccc21 [Example 21, 4-cyano-N-(3-{1-[(6-hydroxypyridin-2-yl)carbonyl]piperidin-4-yl}-1-methyl-1H-indol-5-yl)pyridine-2-carboxamide] | 1440 nM |

| Compound | IC50 |
| --- | --- |
| Cn1cc(C2CCN(C(=O)C(C)(C)CO)CC2)c2cc(NC(=O)c3cc(C#N)ccn3)ccc21 [Example 22, 4-cyano-N-{3-[1-(3-hydroxy-2,2-dimethylpropanoyl)piperidin-4-yl]-1-methyl-1H-indol-5-yl}pyridine-2-carboxamide] | 384 nM |
| Cn1cc(C2CCN(C(=O)C(O)C(F)(F)F)CC2)c2cc(NC(=O)c3cc(C#N)ccn3)ccc21 (stereo not shown) [Example 23, 4-cyano-N-{1-methyl-3-[1-(3,3,3-trifluoro-2-hydroxypropanoyl)piperidin-4-yl]-1H-indol-5-yl}pyridine-2-carboxamide] | 334 nM |
| Cn1cc(C2CCN(C(=O)c3ncccn3)CC2)c2cc(NC(=O)c3cc(C#N)ccn3)ccc21 [Example 24, 4-cyano-N-{1-methyl-3-[1-(pyrimidin-2-ylcarbonyl)piperidin-4-yl]-1H-indol-5-yl}pyridine-2-carboxamide] | 246 nM |
| Cn1cc(C2CCN(C(=O)C3CCCO3)CC2)c2cc(NC(=O)c3cc(C#N)ccn3)ccc21 (stereo not shown) [Example 25, 4-cyano-N-{1-methyl-3-[1-(tetrahydrofuran-2-ylcarbonyl)piperidin-4-yl]-1H-indol-5-yl}pyridine-2-carboxamide] | 31.6 nM |
| Cn1cc(C2CCN(C(=O)c3cnccn3)CC2)c2cc(NC(=O)c3cc(C#N)ccn3)ccc21 [Example 26, 4-cyano-N-{1-methyl-3-[1-(pyrazin-2-ylcarbonyl)piperidin-4-yl]-1H-indol-5-yl}pyridine-2-carboxamide] | 87 nM |
| Cn1cc(C2CCN(C(=O)[C@H]3CC[C@H](O)CC3)CC2)c2cc(NC(=O)c3cc(C#N)ccn3)ccc21 [Example 27, 4-cyano-N-(3-{1-[(trans-4-hydroxycyclohexyl)carbonyl]piperidin-4-yl}-1-methyl-1H-indol-5-yl)pyridine-2-carboxamide] | 1420 nM |
| CC(C)C(O)C(=O)N1CCC(c2cn(C)c3ccc(NC(=O)c4cc(C#N)ccn4)cc23)CC1 (stereo not shown) [Example 28, 4-cyano-N-{3-[1-(2-hydroxy-3-methylbutanoyl)piperidin-4-yl]-1-methyl-1H-indol-5-yl}pyridine-2-carboxamide] | 88.1 nM |
| Cn1cc(C2CCN(C(=O)[C@H]3CC[C@@H](O)CC3)CC2)c2cc(NC(=O)c3cc(C#N)ccn3)ccc21 [Example 29, 4-cyano-N-(3-{1-[(cis-4-hydroxycyclohexyl)carbonyl]piperidin-4-yl}-1-methyl-1H-indol-5-yl)pyridine-2-carboxamide] | 56.2 nM |
| Cn1cc(C2CCN(C(=O)CCC(F)(F)F)CC2)c2cc(NC(=O)c3cc(C#N)ccn3)ccc21 [Example 30, 4-cyano-N-{1-methyl-3-[1-(4,4,4-trifluorobutanoyl)piperidin-4-yl]-1H-indol-5-yl}pyridine-2-carboxamide] | 14.3 nM |
| Cn1cc(C2CCN(C(=O)C34CC(C3)C4)CC2)c2cc(NC(=O)c3cc(C#N)ccn3)ccc21 [Example 31, N-{3[1-(bicyclo[1.1.1]pent-1-ylcarbonyl)piperidin-4-yl]-1-methyl-1H-indol-5-yl}-4-cyanopyridine-2-carboxamide] | 121 nM |
| Cn1cc(C2CCN(C(=O)C3CC3(F)F)CC2)c2cc(NC(=O)c3cc(C#N)ccn3)ccc21 (stereo not shown) [Example 32, 4-cyano-N-(3-{1-[(2,2-difluorocyclopropyl)carbonyl]piperidin-4-yl}-1-methyl-1H-indol-5-yl)pyridine-2-carboxamide] | 35.5 nM |
| Cn1cc(C2CCN(C(=O)CC3CC3)CC2)c2cc(NC(=O)c3cc(C#N)ccn3)ccc21 [Example 33, 4-cyano-N-{3-[1-(cyclopropylacetyl)piperidin-4-yl]-1-methyl-1H-indol-5-yl}pyridine-2-carboxamide] | 7.6 nM |
| COCC(=O)N1CCC(c2cn(C)c3ccc(NC(=O)c4cc(C#N)ccn4)cc23)CC1 [Example 34, 4-cyano-N-{3-[1-(methoxyacetyl)piperidin-4-yl]-1-methyl-1H-indol-5-yl}pyridine-2-carboxamide] | 100 nM |
| Cn1cc(C2CCN(C(=O)CC(F)(F)F)CC2)c2cc(NC(=O)c3cc(C#N)ccn3)ccc21 [Example 35, 4-cyano-N-{1-methyl-3-[1-(3,3,3-trifluoropropanoyl)piperidin-4-yl]-1H-indol-5-yl}pyridine-2-carboxamide] | 21.6 nM |
| N#Cc1ccnc(C(=O)Nc2ccc3[nH]cc(C4CCN(C(=O)C5CCCC5)CC4)c3c2)c1 [Example 37, 4-cyano-N-(3-(1-(cyclopentanecarbonyl)piperidin-4-yl)-1H-indol-5-yl)picolinamide] | 34.1 nM |
